Four compounds from patent US10271552B2, “Heterocyclic compounds as pesticides” (Bayer CropScience Aktiengesellschaft, priority 2015, dated 2019) can be followed below.

Common to all, as to type: in vivo
The subject of one experiment is Boophilus microplus. The experiment can be described thus: Boophilus microplus injection test. Particulars: 20 μg/animal injected; adult engorged female ticks; after 7 days. An outline of the steps: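 Efficacy expresses the share of infertile eggs (100% all infertile, 0% all fertile), judged at 7 days or at hatching around day 42. Five adult engorged females were each injected abdominally with 1 μl of DMSO compound solution and incubated in a climate chamber.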

In experiment [1] the test system is Ctenocephalides felis. As to the kind of experiment: whole plant or invertebrate. Particulars: po, 48 h. The procedure:
Ctenocephalides felis—Oral Test
(§1) Solvent: dimethyl sulfoxide
To produce a suitable preparation of active compound, 10 mg of active compound are dissolved in 0.5 ml solvent, and the concentrate is diluted with cattle blood to the desired concentration.
Approximately 20 adult unfed cat fleas (Ctenocephalides felis) are placed in flea chambers. The blood chamber, sealed with parafilm on the bottom, are filled with cattle blood supplied with compound solution and placed on the gauze covered top of the flea chamber, so that the fleas are able to suck the blood. The blood chamber is heated to 37° C. whereas the flea chamber is kept at room temperature.
After 2 days mortality in % is determined. 100% means all the fleas have been killed; 0% means none of the fleas have been killed.

The next experiment concerns Lucilia cuprina. As to the kind of experiment: whole plant or invertebrate. Particulars: 48 h. As to the method:
as §1
10 mg active compound are dissolved in 0.5 ml Dimethylsulfoxid. Serial dilutions are made to obtain the desired rates.
Approximately 20 1st instar larvae of the Australian sheep blowfly (Lucilia cuprina) are transferred into a test tube containing minced horse meat and compound solution of the desired concentration.
After 2 days mortality in % is determined. 100% means all the larvae have been killed; 0% means none of the larvae have been killed.

In a further experiment the test system is Diabrotica balteata. As to the kind of experiment: Diabrotica balteata spray test. Particulars: 160 μg/well; germinated wheat seeds, larvae; after 7 days. An outline of the steps: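 Germinated wheat seeds on agar (5 per well) sprayed with compound in acetone/DMF diluted in water with 1000 ppm alkylarylpolyglycol ether, then infested with 10–20 D. balteata larvae. Efficacy (%) scored after 7 days as seedling growth, 100% matching untreated uninfested control and 0% meaning no seedlings grew.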

The subject of another experiment is Myzus persicae. As to the kind of experiment: Myzus persicae spray test. Particulars: foliar, Chinese cabbage leaf disks, all instars, after 5-6 days. The procedure:
Myzus persicae—Spray Test
(§2) Solvent: 78.0 parts by weight acetone • 1.5 parts by weight dimethylformamide
(§3) Emulsifier: alkylarylpolyglycol ether
(§4) To produce a suitable preparation of active compound, 1 part by weight of active compound is mixed with the stated amount of solvents and is diluted with water, containing an emulsifier concentration of 1000 ppm, to the desired concentration. Further test concentrations are prepared by dilution with emulsifier containing water.
Chinese cabbage (Brassica pekinensis) leaf disks infected with all instars of the green peach aphid (Myzus persicae), are sprayed with a preparation of the active ingredient of the desired concentration.
After 5-6 days mortality in % is determined. 100% means all aphids have been killed and 0% means none of the aphids have been killed.

The subject of experiment [2] is Nezara viridula. The experiment can be described thus: Nezara viridula spray test (solvent 78.0 acetone / 1.5 dimethylformamide). Particulars: 96 h, barley plants, larvae, after 4 days. As to the method:
(§5) Nezara viridula—Spray Test
(§6) Solvent: 78.0 parts by weight of acetone • • 1.5 parts by weight of dimethylformamide
as §3
To produce a suitable preparation of active compound, 1 part by weight of active compound is mixed with the stated amount of solvent, and the concentrate is diluted with water, containing an emulsifier concentration of 1000 ppm, to the desired concentration. Further test concentrations are prepared by dilution with emulsifier containing water.
(§7) Barley plants (Hordeum vulgare) infested with larvae of the southern green stink bug (Nezara viridula) are sprayed with a test solution containing the desired concentration of the active ingredient.
(§8) After 4 days mortality in % is determined. 100% means all the stink bugs have been killed; 0% means none of the stink bugs have been killed.

The next experiment concerns Phaedon cochleariae. The experiment can be described thus: Phaedon cochleariae spray test. Particulars: foliar, 168 h, Chinese cabbage leaf disks, larvae, after 7 days. As to the method: Phaedon cochleariae—Spray Test
as §6, §3, §4
Chinese cabbage (Brassica pekinensis) leaf disks are sprayed with a preparation of the active ingredient of the desired concentration. Once dry, the leaf disks are infested with mustard beetle larvae (Phaedon cochleariae).
After 7 days mortality in % is determined. 100% means all beetle larvae have been killed and 0% means none of the beetle larvae have been killed.

A further experiment relates to Spodoptera frugiperda. As to the kind of experiment: Spodoptera frugiperda spray test. Particulars: 168 h, maize leaf sections, larvae, after 7 days. The procedure: Spodontera frugiperda—Spray Test
as §2, §3, §4
Maize (Zea mays) leaf sections are sprayed with a preparation of the active ingredient of the desired concentration. Once dry, the leaf sections are infested with fall armyworm larvae (Spodoptera frugiperda).
After 7 days mortality in % is determined. 100% means all caterpillars have been killed and 0% means none of the caterpillars have been killed.

A further experiment relates to Tetranychus urticae. As to the kind of experiment: Tetranychus urticae spray test OP-resistant. Particulars: foliar, 144 h, French bean leaf disks, all instars, after 6 days. As to the method:
Tetranychus urticae—Spray Test OP-Resistant
as §2, §3, §4
French bean (Phaseolus vulgaris) leaf disks infected with all instars of the two spotted spidermite (Tetranychus urticae), are sprayed with a preparation of the active ingredient of the desired concentration.
After 6 days mortality in % is determined. 100% means all spider mites have been killed and 0% means none of the spider mites have been killed.

Experiment [3] deals with Nezara viridula. As to the kind of experiment: Nezara viridula spray test (solvent 52.5 acetone / 7 dimethylformamide). Particulars: 96 h, barley plants, larvae, after 4 days. As to the method:
as §5
(§9) Solvent: 52.5 parts by weight of acetone • 7 parts by weight of dimethylformamide
(§10) Emulsifier: alkylaryl polyglycolether
To produce a suitable preparation of active compound, 1 part by weight of active compound is mixed with the stated amount of solvent, and the concentrate is diluted with water, containing an emulsifier concentration of 1000 ppm, to the desired concentration. Ammonium salt and/or penetration enhancer in a dosage of 1000 ppm are added to the desired concentration if necessary.
as §7, §8

The subject of experiment [4] is Ctenocephalides felis. As to the kind of experiment: Ctenocephalides felis in-vitro contact test, adult cat flea. Particulars: 5 μg/cm^2 (=500 g/ha), after 48 hours. The procedure: Ctenocephalides felis—In-Vitro Contact Tests Adult Cat Flea
9 mg compound is solved in 1 ml acetone and diluted with acetone to the desired concentration. 250 μl of the test solution is filled in 25 ml glass test tubes and homogeneously distributed on the inner walls by rotation and tilting on a shaking device (2 h at 30 rpm). With a compound concentration of 900 ppm, an inner surface of 44.7 cm^2 and a homogeneous distribution, a dose of 5 μg/cm^2 is achieved.
After the solvent has evaporated, each test tube is filled with 5-10 adult cat fleas (Ctenocephalides felis), closed with a perforated lid and incubated in a lying position at room temperature and relative humidity. After 48 hours efficacy is determined. The fleas are patted on the ground of the tubes and are incubated on a heating plate at 45-50° C. for at most 5 minutes. Immotile or uncoordinated moving fleas, which are not able to escape the heat by climbing upwards, are marked as dead or moribund.
An efficacy of 100% means all fleas are dead or moribund; 0% means no fleas are dead or moribund.

Another experiment deals with Musca domestica. The experiment can be described thus: Musca domestica test. Particulars: Musca domestica, 48 h. The procedure: as §1
To produce a suitable preparation of active compound, 10 mg of active compound are dissolved in 0.5 ml solvent, and the concentrate is diluted with water to the desired concentration.
10 adult house flies (Musca domestica) are transferred into a container, containing a sponge soaked with a mixture of sugar solution and compound solution of the desired concentration.
After 2 days mortality in % is determined. 100% means all the flies have been killed; 0% means none of the flies have been killed.

For experiment [5], the system named is Nilaparvata lugens. As to the kind of experiment: Nilaparvata lugens spray test (solvent 52.5 acetone / 7 dimethylformamide). Particulars: 96 h, rice plants, larvae, after 4 days. As to the method:
(§11) Nilaparvata lugens—Spray Test
as §9, §10
To produce a suitable preparation of active compound, 1 part by weight of active compound is mixed with the stated amount of solvents and is diluted with water, containing an emulsifier concentration of 1000 ppm, to the desired concentration. Further test concentrations are prepared by dilution with emulsifier containing water. Ammonium salt and/or penetration enhancer in a dosage of 1000 ppm are added to the desired concentration if necessary.
Rice plants (Oryza sativa) are treated by being sprayed with the desired concentration of the active compound and are infested with larvae of the brown planthopper (Nilaparvata lugens).
(§12) After 4 days mortality in % is determined. 100% means all planthoppers have been killed and 0% means none of the planthoppers have been killed.

For another experiment, the system named is Meloidogyne incognita. The experiment can be described thus: Meloidogyne incognita test. Particulars: 20 ppm; eggs and larvae, salad seeds in sand; after 14 days. An outline of the steps:
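Compound taken up in acetone and diluted with water, then applied to sand with M. incognita eggs and larvae plus salad seeds. Gall formation on roots scored after 14 days: 100% means no galls, 0% equals untreated control.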

Experiment [6] deals with Nilaparvata lugens. As to the kind of experiment: Nilaparvata lugens spray test (solvent 78.0 acetone / 1.5 dimethylformamide). Particulars: 96 h, rice plants, after 4 days. As to the method:
as §11, §6, §3, §4
Rice plants (Oryza sativa) are sprayed with a preparation of the active ingredient of the desired concentration and the plants are infested with the brown planthopper (Nilaparvata lugens).
as §12

Consider `O=C(Nc1nc(-c2ccccc2OC(F)(F)F)ns1)c1cccnc1C(F)(F)F` [Compound I-1-55, N-{3-[2-(Trifluoromethoxy)phenyl]-1,2,4-thiadiazol-5-yl}-2-(trifluoromethyl)nicotinamide], for which the “efficacy (infertile eggs)” value with Boophilus microplus amounted to 100%. Also, the mortality at 100 ppm in the experiment on Ctenocephalides felis [1] and in the experiment on Lucilia cuprina was 100% each time. In addition, the “efficacy (seedling growth)” value in the experiment with Diabrotica balteata is reported as 100%. The mortality at 500 g/ha is at least 70% with Myzus persicae; at least 90% in the experiment with Nezara viridula [2]; at least 80% in the experiment on Phaedon cochleariae; at least 80% in the experiment with Spodoptera frugiperda; at least 70% in the experiment on Tetranychus urticae; at least 90% with Nezara viridula [3].

Take `O=C(c1cccnc1C(F)(F)F)N(C(=O)c1cccnc1C(F)(F)F)c1nc(-c2c(F)cccc2F)ns1` [Compound I-1-31, N-[3-(2,6-Difluorophenyl)-1,2,4-thiadiazol-5-yl]-2-(trifluoromethyl)-N-{[2-(trifluoromethyl)pyridin-3-yl]carbonyl}nicotinamide]: in the experiment on Ctenocephalides felis [4], the “efficacy (fleas dead or moribund)” value was 100%. For the same compound, in the experiment on Boophilus microplus, the “efficacy (infertile eggs)” value is 100%. Besides, the values for the mortality at 100 ppm in the experiment on Ctenocephalides felis [1], with Lucilia cuprina and with Musca domestica were 100%, 100% and 80%, respectively. The mortality at 500 g/ha in the experiment on Phaedon cochleariae was at least 80%; in the experiment on Tetranychus urticae, at least 70%; with Nezara viridula [3] it was at least 90%.

Regarding `O=C(Nc1nc(-c2cccc(C(F)(F)F)c2Cl)ns1)c1cccnc1C(F)(F)F` [Compound I-1-62, N-{3-[2-Chloro-3-(trifluoromethyl)phenyl]-1,2,4-thiadiazol-5-yl}-2-(trifluoromethyl)nicotinamide], the mortality at 500 g/ha was at least 70% with Myzus persicae; at least 90% in the experiment with Nezara viridula [2]; at least 80% in the experiment on Phaedon cochleariae; at least 80% with Spodoptera frugiperda; at least 70% with Tetranychus urticae; at least 90% in the experiment with Nezara viridula [3]. The compound further had a mortality at 500 g/ha with Nilaparvata lugens [5] of at least 80%.

`O=C(Nc1nc(-c2ccccc2C(F)(F)F)ns1)c1cccnc1C(F)(F)F` [Compound I-1-20, 2-(trifluoromethyl)-N-{3-[2-(trifluoromethyl)phenyl]-1,2,4-thiadiazol-5-yl}nicotinamide]: in the experiment on Boophilus microplus, the “efficacy (infertile eggs)” value was 100%. The mortality at 100 ppm in the experiment on Ctenocephalides felis [1] and in the experiment with Lucilia cuprina was 100% in each case. The “efficacy (seedling growth)” value in the experiment with Diabrotica balteata worked out at 100%. In addition, in the experiment on Meloidogyne incognita, the “nematicidal activity (gall formation)” value turned out to be 100%. Moreover, the mortality at 500 g/ha is at least 70% in the experiment on Myzus persicae; at least 90% with Nezara viridula [2]; at least 70% in the experiment on Nilaparvata lugens [6]; at least 80% in the experiment with Phaedon cochleariae; at least 70% in the experiment with Tetranychus urticae; at least 90% with Nezara viridula [3]. In the experiment on Nilaparvata lugens [5], the mortality at 500 g/ha was at least 80%.
